# ChEMBL document CHEMBL1130060, “Novel prodrugs of cyanamide that inhibit aldehyde dehydrogenase in vivo” (1997)
# What was measured:
# [1] = target: T1, Aldehyde dehydrogenase 1A1 (Rattus norvegicus) (UniProt P51647); experiment: Inhibitory activity against aldehyde dehydrogenase in rats.; conditions: concentration not given here
# T1 sequence (whole entry): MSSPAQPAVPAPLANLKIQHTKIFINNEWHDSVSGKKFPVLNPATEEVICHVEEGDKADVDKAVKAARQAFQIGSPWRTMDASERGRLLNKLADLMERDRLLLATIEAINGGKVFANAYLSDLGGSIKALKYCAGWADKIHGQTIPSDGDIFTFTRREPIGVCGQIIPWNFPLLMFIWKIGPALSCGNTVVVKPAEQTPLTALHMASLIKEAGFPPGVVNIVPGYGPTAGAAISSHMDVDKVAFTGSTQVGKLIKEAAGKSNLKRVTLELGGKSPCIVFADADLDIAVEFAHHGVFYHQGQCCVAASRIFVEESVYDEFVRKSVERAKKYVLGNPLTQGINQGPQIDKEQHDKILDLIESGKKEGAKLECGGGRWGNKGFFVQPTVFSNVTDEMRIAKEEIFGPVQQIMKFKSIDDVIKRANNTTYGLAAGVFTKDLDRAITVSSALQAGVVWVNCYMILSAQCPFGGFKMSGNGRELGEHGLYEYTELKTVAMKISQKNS
# [2] = tested on: Rattus norvegicus; experiment: Blood acetaldehyde level in rats following the administration of the compound.; assay type: functional
# [3] = tested on: Rattus norvegicus; experiment: Blood EtOH level in rats following the administration of the compound.; assay type: functional
SMILES,inhibition [1] [%],Potency [2] [mM],Potency [3] [mM]
CC(C)CSC(=N)N,66,,
CCCCSC(=N)N,82,,
C=CCSC(=N)N,88,,
CC(=O)NCCSC(=N)N,,0.067,50.1
